{"source": "patent US8614187B2", "about": "“Peptides, compositions and uses thereof” (The Queen's University of Belfast, priority 2007, dated 2013)", "key": {"[1]": {"tested_on": "rat tail arterial smooth muscle preparation", "experiment": "Rat tail artery smooth muscle bioassay (relaxation of phenylephrine-preconstricted artery)", "assay_type": "cell-based", "settings": "for % Maximum Response (relaxation): rat tail artery, pre-constricted, at optimum concentration", "experimental": "(A) Arterial Smooth Muscle:\nMale albino Wistar rats (200-350 g) were euthanized by asphyxiation followed by cervical dislocation.\nThe tail artery was prepared as previously described (Hirst et al (1994) Br. J. Radiol. 67, 795-799). Incubation buffer was 95% O2/5% CO2 oxygenated Krebs' solution (NaCl 118 mM, KCl 4.7 mM, NaHCO3 25 mM, NaH2 PO4 1.15 mM, CaCl2 2.5 mM, MgCl2 1.1 mM, glucose 5.6 mM). Constriction or dilation of the arterial smooth muscle preparation was detected by an increase or decrease in pressure generated by water column displacement using pressure transducers connected to a MacLab System (AD Instruments Pty Ltd. Australia). […] Viability was determined using a range of bolus phenylephrine (5 μM-10 μM) exposures and the endothelial layer of the artery was removed by bubbling with oxygen for 10 s. Absence of the endothelial layer was confirmed by the lack of relaxation in response to a 30 min perfusion of acetylcholine (50 μM) after preconstriction with phenylephrine (10 μM).\n(§1) For intestinal smooth muscle preparations, one cm thick rings of ileum were carefully placed onto the pins of a MacLab force transducer, one pin acting as a stationary fixed point while the second pin was free, permitting application of tension to the smooth muscle. The muscle rings were gradually exposed to 0.1 g increments in resting tension until the spontaneous contractions originated from a resting tension of 0.5 g. The contracting muscle preparations were allowed to stabilise for 25 min before the application of peptides. After perfusion of arterial preparations with 10 μM phenylephrine to obtain constriction plateaux, relative relaxation was recorded following applications of peptides in the range of 1×10^−5-1×10^−10 M. The intestinal smooth muscle ring preparations were exposed to peptide doses as above and relative changes in tension were recorded."}, "[2]": {"tested_on": "rat ileal smooth muscle ring preparation", "experiment": "Rat ileum smooth muscle ring bioassay (constriction of spontaneously contracting ileum)", "assay_type": "cell-based", "settings": "for % Maximum Response (constriction): spontaneously contracting rat ileum, at optimum concentration", "description": "(B) Small Intestinal Smooth Muscle:\nas §1"}, "HMEC-1 [3]": {"tested_on": "HMEC-1", "experiment": "In vitro endothelial cell angiogenic tubule formation assay (Matrigel)", "assay_type": "cell-based, human", "experimental": "FIG. 3 illustrates the effect of the QUB 698.8 peptide on the ability of HMEC-1 to form tubules on matrigel matrices.\n(§2) • 1. […] Selective arterial smooth muscle dilators often have pro-angiogenic properties so QUB 698.8 was subjected to a range of appropriate bioassays to determine spectra of activity. • 4. In the human microvessel endothelial cell wound scrape assay, cells are grown on a glass slide to confluence, a standard-sized wound is made with a pipette tip and time taken to repair tear is measured. QUB 698.8 promoted wound closure 42% faster than non-treated controls at an optimum effective concentration of 10 nanomolar (Table 1—panel B and FIGS. 2a and b). • 5. Using an in vitro endothelial cell angiogenic tubule formation assay (Matrigel) QUB 698.8 induced 75% more tubules than time-matched controls at an optimum concentration of 1 nanomolar (Table 1—panel B and FIG. 3). • 6. […] (Table 1—panel B and FIG. 4). This may be indicative of a rapid role in cell cycle synchronization."}, "[4]": {"tested_on": "Human Microvascular Endothelial Cells (HMEC-1)", "experiment": "Human microvessel endothelial cell wound scrape (migration) assay", "assay_type": "cell-based", "experimental": "as §2"}, "HMEC-1 [5]": {"tested_on": "HMEC-1", "experiment": "Endothelial cell proliferation assay (MTT)", "assay_type": "cell-based, human", "experimental": "FIG. 4 illustrates the effect of the QUB 698.8 peptide on the proliferation of HMEC-1 over 72 hours compared to a non-treatment control.\nas §2"}, "[6]": {"settings": "migration wound scrape, T = 7 dose response"}}}
{"substance": "DLPKINRKGPRPPGFSPFR [Mx, Asp-Leu-Pro-Lys-Ile-Asn-Arg-Lys-Gly-Pro-Arg-Pro-Pro-Gly-Phe-Ser-Pro-Phe-Arg, reference compound]", "values": [{"measurement": "EC50", "setting": "[1]; rat tail artery relaxation", "value": 6.18, "unit": "nM"}, {"measurement": "Optimum Concentration", "setting": "[1]; rat tail artery relaxation", "value": "10^−7 M"}, {"measurement": "% Maximum Response (relaxation)", "setting": "[1]", "value": 30, "unit": "% relaxation"}, {"measurement": "EC50", "setting": "[2]; rat ileum constriction", "value": 534, "unit": "nM"}, {"measurement": "Optimum Concentration", "setting": "[2]; rat ileum constriction", "value": "10^−6 M"}, {"measurement": "% Maximum Response (constriction)", "setting": "[2]", "value": 52, "unit": "% Constriction"}]}
{"substance": "DLPKIN [QUB 698.8, Asp-Leu-Pro-Lys-Ile-Asn]", "values": [{"measurement": "Response of rat tail arterial smooth muscle preparation", "setting": "[1]", "value": "dose-dependent relaxation"}, {"measurement": "Optimum concentration for maximal effect, arterial compared to ileal smooth muscle", "setting": "[1]; arterial vs ileal smooth muscle", "value": "two orders of magnitude lower"}, {"measurement": "EC50", "setting": "[1]; rat tail artery relaxation", "value": 7, "unit": "nM"}, {"measurement": "Optimum Concentration", "setting": "[1]; rat tail artery relaxation", "value": "10^−7 M"}, {"measurement": "Potency relative to bradykinin", "setting": "[1]; rat tail artery relaxation", "value": "almost equipotent with bradykinin"}, {"measurement": "Potency relative to maximakinin", "setting": "[1]; rat tail artery relaxation", "value": "more potent than maximakinin"}, {"measurement": "% Maximum Response (relaxation)", "setting": "[1]", "value": 25, "unit": "% relaxation"}, {"measurement": "Response of rat ileal smooth muscle ring preparation", "setting": "[2]", "value": "dose-dependent constriction"}, {"measurement": "EC50", "setting": "[2]; rat ileum constriction", "value": 1440, "unit": "nM"}, {"measurement": "Optimum Concentration", "setting": "[2]; rat ileum constriction", "value": "10^−5 M"}, {"measurement": "Potency relative to bradykinin and maximakinin", "setting": "[2]; rat ileum constriction", "value": "less potent than both bradykinin and maximakinin"}, {"measurement": "% Maximum Response (constriction)", "setting": "[2]", "value": 52, "unit": "% Constriction"}, {"measurement": "Peptide effect", "setting": "HMEC-1 [3]; stimulator of endothelial tubule formation", "value": "Potent"}, {"measurement": "EC50", "setting": "HMEC-1 [3]; tubule formation", "value": 0.0526, "unit": "nM"}, {"measurement": "Optimum Concentration", "setting": "HMEC-1 [3]; tubule formation", "value": "10^−9 M"}, {"measurement": "Optimum concentration", "setting": "HMEC-1 [3]; tubule formation", "value": 1, "unit": "nM"}, {"measurement": "Time to 50% wound closure", "setting": "[4]; migration wound scrape, Other information", "value": "T = 3 hrs"}, {"measurement": "EC50", "setting": "[4]; [6]", "value": 0.339, "unit": "nM"}, {"measurement": "Optimum Concentration", "setting": "[4]; [6]", "value": "10^−8 M"}, {"measurement": "Peptide effect", "setting": "[4]; migration wound scrape, T = 7 dose response: promoter of wound closure", "value": "Potent"}, {"measurement": "Optimum effective concentration", "setting": "[4]; wound closure", "value": 10, "unit": "nM"}, {"measurement": "Optimum Concentration", "setting": "[4]; wound scrape total time to closure", "value": "10^−8 M"}, {"measurement": "Time to complete wound closure", "setting": "[4]; wound scrape total time to closure, 10^−8 M", "value": 16, "unit": "h"}, {"measurement": "Peptide effect", "setting": "[4]; wound scrape total time to closure: stimulator of initial endothelial migration", "value": "Potent"}, {"measurement": "Endothelial cell number compared to non-treated controls after 48 h", "setting": "HMEC-1 [5]; after 48 h", "value": "no significant differences"}, {"measurement": "Other information: proliferation after 24 hrs", "setting": "HMEC-1 [5]; beyond 24 hrs", "value": "No further"}, {"measurement": "EC50", "setting": "HMEC-1 [5]; proliferation", "value": 0.0659, "unit": "nM"}, {"measurement": "Optimum Concentration", "setting": "HMEC-1 [5]; proliferation", "value": "10^−8 M"}, {"measurement": "Peptide effect", "setting": "HMEC-1 [5]; stimulator of endothelial cell proliferation", "value": "Potent"}]}
